Source: patent US11590117B2, “Treatment of a hematologic malignancy with 2-(4-chlorophenyl)-n-((2-(2,6-dioxopiperidin-3-yl)-1-oxoisoindolin-5-yl)methyl)-2,2-difluoroacetamide” (priority 2016, dated 2023)
Like-named read-outs stand apart in the source and are kept apart here.

Tests used:
Type in all cases: cell-based
GDM-1 = assay: IncuCyte Kinetic Caspase-3/7 Apoptosis Assay; conditions: Homo sapiens, read-out: Compound 1-induced Apoptosis EC50
Source text: (§1) Methods. Acute Myeloid Leukemia Cell Line Panel: Human AML cell lines, AML-193, F36-P, GDM-1, HL-60, HNT-34, Kasumi-1, Kasumi-3, KG-1, KG-1a, ML-2, MOLM-13, MUTZ-8, MV-4-11, NOMO-1, OCI-AML2, OCI-AML3, SIG-M5, TF-1, THP-1, and UT-7 were obtained from American Type Culture Collection (ATCC; Manassas, Va.) and Deutsche Sammlung von Mikroorganismen und Zellkulturen (DSMZ) (Germany) cell banks. The AML panel includes cell line(s) from each FAB classification (M0-M7) (Table 7).
(§2) Cell Culture Conditions: Cell lines were maintained in growth media containing 20% fetal bovine serum (FBS) (Hyclone Cat no. SH30910.03, Lot no. AZF188864; Corning REFno. 35-010-CV, Lot no. 35010124) supplemented with or without 10 ng/mL human recombinant granulocyte-macrophage colony stimulating factor (Sigma-Aldrich Cat no. SRP3050) (Table 8). Medium was purchased from ATCC (Cat no. 30-2001, 30-2002, 30-2003, 30-2005) and Gibco (REF no. 12561-056). Human recombinant granulocyte macrophage colony stimulating factor (GM-CSF) was expressed in Escherichia coli. The cell doubling times for each cell line were provided by ATCC and DSMZ. Cells were maintained in humidified incubators at 5% carbon dioxide (CO2). All cell lines were acclimated to Eagle's minimal essential medium (EMEM)+20% FBS with or without GM-CSF over 2 to 4 weeks prior to live cell imaging using IncuCyte Zoom (Essen Biosciences). The use of EMEM was necessary to eliminate background fluorescence caused by riboflavin in most media.
(§3) Incubation of Cell Cultures with Compound 1: Compound 1 was provided for studies by Celgene chemistry group at a stock concentration of 30 mM in 20 μL dimethyl sulfoxide (DMSO) frozen. Costar 96-well cell culture plates (Corning Cat no. 3595) were coated with 100 μL of 10 µg/mL fibronectin (Sigma-Aldrich Cat no. F1141) for 4 hours at 37° C. and immediately used or refrigerated overnight for later use. Cells (3000 to 6000 cells) were plated in growth medi in fibronectin-coated 96-well plates and incubated for a minimum of a few hours to overnight. Cells were incubated with a 12-point concentration response in triplicate with Compound 1 ([…]) including DMSO and Media controls. A 3-fold serial dilution of Compound 1 starting from a concentration of 200 μM in 0.6% DMSO (diluted in Media) was performed. For most sensitive cell lines, a 3-fold serial dilution of Compound 1 starting from a concentration of 20 μM in 0.6% DMSO (diluted in media) was performed. A volume of 5 μL or 10 μL for each dilution was added to 100 μL or 200 μL cells, respectively (0.3% DMSO final) and incubated for live cell imaging.
(§4) Live Cell Imaging on IncuCyte Zoom: Following incubation of cells with Compound 1, diluted Caspase 3/7 reagent (Essen Biosciences Cat no. 4440) is added to each well. The Caspase-3/7 reagent couples the activated caspase-3/7 recognition motif (DEVD) to NucView™488, a DNA intercalating dye. The cleavage of substrate by activated caspase-3/7 results in the release of the DNA dye and green fluorescent staining of nuclear DNA. This allows imaging of cells undergoing caspase-3/7 mediated apoptosis over time. Caspase-3/7 activation was quantified using the IncuCyte™ ZOOM basic analyzer. Red-labeled cell lines were also imaged over time using the IncuCyte™ ZOOM basic analyzer, for determination of both cell doubling time and Compound 1 effect on cell viability. Experiments were performed at least two times in each cell line.
(§5) Next, a 4 parameter log-logistic model was used to determine relative EC50 at each time point by the ‘drm’ function from the R ‘drc’ package (Ritz C, Streibig J C. Bioassay Analysis using R. J. Statist. Software 2005; 12(5):1-22). Goodness of fit was measured by R squared (coefficient of determination or the amount of variation explained by the model fit) of ≥80%, and EC50 parameter was assessed by having a ratio of standard error to the parameter of ≤40%, and the presence of at least one concentration point above and below the reported EC50. […]

ML-2 = assay: IncuCyte Kinetic Caspase-3/7 Apoptosis Assay; conditions: Homo sapiens, read-out: Compound 1-induced Apoptosis EC50
Source text: as §1, §2, §3, §4, §5

KG-1a = assay: IncuCyte Kinetic Caspase-3/7 Apoptosis Assay; conditions: Homo sapiens, read-out: Compound 1-induced Apoptosis EC50
Source text: as §1, §2, §3, §4, §5

THP-1 = assay: IncuCyte Kinetic Caspase-3/7 Apoptosis Assay; conditions: Homo sapiens
Source text: as §1, §2, §3, §4, §5

MOLM-13 = assay: IncuCyte Kinetic Caspase-3/7 Apoptosis Assay; conditions: Homo sapiens, read-out: Compound 1-induced Apoptosis EC50
Source text: as §1, §2, §3, §4, §5

MV-4-11 = assay: IncuCyte Kinetic Caspase-3/7 Apoptosis Assay; conditions: Homo sapiens, read-out: Compound 1-induced Apoptosis EC50
Source text: as §1, §2, §3, §4, §5

HL-60 = assay: IncuCyte Kinetic Caspase-3/7 Apoptosis Assay; conditions: Homo sapiens, read-out: Compound 1-induced Apoptosis EC50
Source text: as §1, §2, §3, §4, §5

F36-P = assay: IncuCyte Kinetic Caspase-3/7 Apoptosis Assay; conditions: Homo sapiens, read-out: Compound 1-induced Apoptosis EC50
Source text: as §1, §2, §3, §4, §5

AML cell lines = assay: IncuCyte Kinetic Caspase-3/7 Apoptosis Assay, panel of twenty AML cell lines; conditions: Homo sapiens
Source text: as §1, §2, §3, §4, §5

## O=C1CCC(N2Cc3cc(CNC(=O)C(F)(F)c4ccc(Cl)cc4)ccc3C2=O)C(=O)N1 (centres unmarked) [Compound 1, 2-(4-chlorophenyl)-N-((2-(2,6-dioxopiperidin-3-yl)-1-oxoisoindolin-5-yl)methyl)-2,2-difluoroacetamide]
GDM-1; 12 hr
  EC50: 110 nM
GDM-1; 24 hr
  EC50: 313 nM
GDM-1; 48 hr
  EC50: 49 nM
GDM-1; 72 hr
  EC50: 33 nM
GDM-1; 96 hr
  EC50: 25 nM
ML-2; 12 hr
  EC50: 179 nM
ML-2; 24 hr
  EC50: 62 nM
ML-2; 48 hr
  EC50: 31 nM
ML-2; 72 hr
  EC50: 21 nM
ML-2; 96 hr
  EC50: 25 nM
KG-1a; 24 hr
  EC50: 226 nM
KG-1a; 48 hr
  EC50: 145 nM
KG-1a; 72 hr
  EC50: 186 nM
THP-1; 48 hours, read-out: apoptosis EC50
  EC50: > 10000 nM
THP-1; 48 hours, read-out: apoptosis EC50 48hr
  EC50: > 10000 nM
THP-1; all time points, read-out: apoptosis EC50
  EC50: > 10000 nM
MOLM-13; 24 hr
  EC50: 916 nM
MOLM-13; 48 hr
  EC50: 368 nM
MOLM-13; 72 hr
  EC50: 156 nM
MOLM-13; 96 hr
  EC50: 79 nM
MV-4-11; MV4-11, 12 hr
  EC50: 227 nM
MV-4-11; MV4-11, 24 hr
  EC50: 167 nM
MV-4-11; MV4-11, 48 hr
  EC50: 32 nM
MV-4-11; MV4-11, 72 hr
  EC50: 16 nM
MV-4-11; MV4-11, 96 hr
  EC50: 17 nM
HL-60; 24 hr
  EC50: 73 nM
HL-60; 48 hr
  EC50: 15 nM
HL-60; 72 hr
  EC50: 8 nM
F36-P; 48 hr
  EC50: 335 nM
F36-P; 72 hr
  EC50: 252 nM
F36-P; 96 hr
  EC50: 229 nM
AML cell lines; 12 h, 8 most sensitive cell lines (5 lines with curve fits), 12 hours, read-out: apoptosis EC50 12hr (range)
  EC50: 53 to 227 nM
AML cell lines; 24 h, 14 of 20 cell lines with successful curve fits, 24 hours, read-out: apoptosis EC50 24hr (range)
  EC50: 7 to 916 nM
AML cell lines; 48 h, eight highly sensitive cell lines (HNT-34, Kasumi-3, HL-60, ML-2, MV4-11, KG-1, MUTZ-8, GDM-1), 48 hours, read-out: apoptosis EC50 48hr (range)
  EC50: 4 to 49 nM
AML cell lines; 48 h, eight highly sensitive cell lines, 48 hours, read-out: apoptosis average EC50 48hr
  EC50: 27 nM
AML cell lines; 48 h, four least sensitive cell lines (UT-7, F36-P, MOLM-13, OCI-AML3), 48 hours, read-out: apoptosis EC50 48hr (range)
  EC50: 231 to 896 nM
AML cell lines; 48 h, four least sensitive cell lines (UT-7, F36-P, MOLM-13, OCI-AML3), 48 hours, read-out: apoptosis average EC50 48hr
  EC50: 458 nM
AML cell lines; 48 h, seven moderately sensitive cell lines (OCI-AML-2, AML-193, SIG-M5, Kasumi-1, TF-1, Nomo-1, KG-1a), 48 hours, read-out: apoptosis EC50 48hr (range)
  EC50: 81 to 145 nM
AML cell lines; 48 h, seven moderately sensitive cell lines, 48 hours, read-out: apoptosis average EC50 48hr
  EC50: 114 nM
AML cell lines; 72 h, AML cell panel, 72 hours, read-out: apoptosis EC50 72hr (range)
  EC50: 3 to 971 nM
AML cell lines; 96 h, AML cell panel, 96 hours, read-out: apoptosis EC50 96hr (range)
  EC50: 1 to 418 nM
